In PMC8286840, “Identifying SARS-CoV-2 antiviral compounds by screening for small molecule inhibitors of Nsp3 papain-like protease” (Biochemical Journal, 2021):
Counter-ions that a name gives are not always drawn. Like-named read-outs stand apart in the source and are kept apart here.

Experiments:
[1] = molecular target: T1, SARS-CoV-2 PLpro (nsp3 1564–1878) (Severe acute respiratory syndrome coronavirus 2, UniProt P0DTD1); experiment: biochemical; parameters: FRET-quenched peptide (Pro3) cleavage by PLpro, 10 min pre-incubation, slope over 20 min, normalised to no-compound control; conditions: read-out: % of control remaining
[2] = molecular target: T1, SARS-CoV-2 PLpro (nsp3 1564–1878); experiment: biochemical; parameters: FRET-quenched peptide (Pro3) cleavage by PLpro, 10 min pre-incubation, slope over 20 min, normalised to no-compound control; conditions: read-out: % of control remaining; remark: listed apart in the source

`CC1=C(/C=C/C(C)=C/C=C/C(C)=C/C=C/C=C(C)/C=C/C=C(C)/C=C/C2=C(C)C(=O)[C@@H](O)CC2(C)C)C(C)(C)C[C@H](O)C1=O` [Astaxanthin] showed a remaining activity at 1.25 µM ([1]; Well no.=296, low concentration screen) of 93.3% and a remaining activity at 3.75 µM ([2]; Well no.=296, high concentration screen) of 92.4%.

In the case of `CCOC(=O)[C@H](CCc1ccccc1)N[C@@H](C)C(=O)N1[C@H](C(=O)O)C[C@@H]2CCC[C@@H]21` [Ramipril], the remaining activity at 1.25 µM ([1]; Well no.=2195, low concentration screen) is reported as 94.4%, the remaining activity at 1.25 µM ([1]; Well no.=7446, low concentration screen) is reported as 99.8% and the remaining activity at 3.75 µM ([2]; Well no.=2195, high concentration screen) is reported as 93.2%. The remaining activity at 3.75 µM ([2]; Well no.=7446, high concentration screen) was 98.5%.

`CN[C@H]1C[C@@H](N)[C@H](O)[C@@H](O[C@@H]2O[C@H](CO)[C@H](O)[C@@H]3OC4(O[C@H]23)O[C@H]([C@@H](N)CO)[C@H](O)[C@H](O)[C@H]4O)[C@@H]1O` (stereo partly drawn) [Hygromycin B] gave a remaining activity at 1.25 µM ([1]; Well no.=5221, low concentration screen) of 99.8% and a remaining activity at 3.75 µM ([2]; Well no.=5221, high concentration screen) of 102%.

In the case of `C[C@H]1CC[C@]2(NC1)O[C@H]1C[C@H]3[C@@H]4CC[C@H]5C[C@@H](O)CC[C@]5(C)[C@H]4CC[C@]3(C)[C@H]1[C@@H]2C` [Tomatidine], the remaining activity at 1.25 µM ([1]; Well no.=3186, low concentration screen) is reported as 94.5% and the remaining activity at 3.75 µM ([2]; Well no.=3186, high concentration screen) is reported as 99.4%.

In the case of `CCCCCCCCCCCCCCC(Br)C(=O)O` (stereo not drawn) [2-bromohexadecanoic acid], the remaining activity at 1.25 µM ([1]; Well no.=5893, low concentration screen) is reported as 106% and the remaining activity at 3.75 µM ([2]; Well no.=5893, high concentration screen) is reported as 106%.

In the case of `Cc1cccc(N(C)C(=S)Oc2ccc3ccccc3c2)c1` [Tolnaftate], the remaining activity at 1.25 µM ([1]; Well no.=4720, low concentration screen) is reported as 105% and the remaining activity at 3.75 µM ([2]; Well no.=4720, high concentration screen) is reported as 106%.

In the case of `CC(C)c1ccc2c(c1)c(SC(C)(C)C)c(CC(C)(C)C(=O)O)n2Cc1ccc(Cl)cc1` [MK-886], the remaining activity at 1.25 µM ([1]; Well no.=1018, low concentration screen) is reported as 105% and the remaining activity at 3.75 µM ([2]; Well no.=1018, high concentration screen) is reported as 104%.

With `CN(C)C(=O)c1ccc(S(=O)(=O)c2ccc(NC(=O)[C@@](C)(O)C(F)(F)F)c(Cl)c2)cc1` [AZD7545] the remaining activity at 1.25 µM ([1]; Well no.=8528, low concentration screen) was 101% and the remaining activity at 3.75 µM ([2]; Well no.=8528, high concentration screen) was 98.2%.

Work on `CN1[C@@H]2CC[C@H]1C[C@@H](OC(=O)c1c[nH]c3ccccc13)C2` [Tropisetron] yielded a remaining activity at 1.25 µM ([1]; Well no.=2008, low concentration screen) of 99.1%, a remaining activity at 1.25 µM ([1]; Well no.=6607, low concentration screen) of 103% and a remaining activity at 3.75 µM ([2]; Well no.=2008, high concentration screen) of 101%.

For `COC(=O)C1=C(C)NC(C)=C(C(=O)OCCCN2CCC(c3ccccc3)(c3ccccc3)CC2)[C@H]1c1cccc([N+](=O)[O-])c1` [Niguldipine], the remaining activity at 1.25 µM [1] was 105% and the remaining activity at 3.75 µM [2] was 100%.

With `C=CC[C@@H]1/C=C(\C)C[C@H](C)C[C@H](OC)[C@H]2O[C@@](O)(C(=O)C(=O)N3CCCC[C@H]3C(=O)O[C@H](/C(C)=C/[C@@H]3CC[C@@H](O)[C@H](OC)C3)[C@H](C)[C@@H](O)CC1=O)[C@H](C)C[C@@H]2OC` [Tacrolimus (monohydrate)] the remaining activity at 1.25 µM ([1]; Well no.=6306, low concentration screen) was 96.8%, the remaining activity at 1.25 µM ([1]; Well no.=7308, low concentration screen) was 104% and the remaining activity at 3.75 µM ([2]; Well no.=6306, high concentration screen) was 93.9%. For the same molecule, the remaining activity at 3.75 µM ([2]; Well no.=7308, high concentration screen) was 107%.

Molecule `CCCCCCCCCCCCCCCCCCOCC(COP(=O)([O-])OCC[N+](C)(C)C)OC` (stereo not drawn) [Edelfosine] has a remaining activity at 1.25 µM ([1]; Well no.=5699, low concentration screen) of 95.5% and a remaining activity at 3.75 µM ([2]; Well no.=5699, high concentration screen) of 96.4%.

In the case of `CCCCCCCCCCCCCCCC(=O)N[C@@H](COP(=O)(O)O)C(=O)O` [L-NASPA], the remaining activity at 1.25 µM ([1]; Well no.=4499, low concentration screen) is reported as 91.6% and the remaining activity at 3.75 µM ([2]; Well no.=4499, high concentration screen) is reported as 94.8%.

For `CCOC(=O)CC(=O)N1CCSC1COc1ccccc1OC` (stereo not drawn) [Moguisteine], the remaining activity at 1.25 µM ([1]; Well no.=4931, low concentration screen) was 98.7% and the remaining activity at 3.75 µM ([2]; Well no.=4931, high concentration screen) was 95.6%.

`O=[N+]([O-])c1ccc(CNc2nc(NCc3cccc(C(F)(F)F)c3)nc3nc[nH]c23)cc1` [IP3K Inhibitor] gave a remaining activity at 1.25 µM ([1]; Well no.=2477, low concentration screen) of 103% and a remaining activity at 3.75 µM ([2]; Well no.=2477, high concentration screen) of 105%.

Molecule `CC1=C2C(=CO[C@H](C)[C@H]2C)C(O)=C(C(=O)O)C1=O` [Citrinin] has a remaining activity at 1.25 µM ([1]; Well no.=3171, low concentration screen) of 101% and a remaining activity at 3.75 µM ([2]; Well no.=3171, high concentration screen) of 107%.

Molecule `NCCc1c[nH]c2ccccc12` [Tryptamine hydrochloride] has a remaining activity at 1.25 µM ([1]; Well no.=291, low concentration screen) of 97.7% and a remaining activity at 3.75 µM ([2]; Well no.=291, high concentration screen) of 96.5%.

`COc1cc2c(cc1-c1c(C)noc1C)ncc1[nH]c(=O)n([C@H](C)c3ccccn3)c12` [7-(3,5-dimethyl-4-isoxazolyl)-8-methoxy-1-[(1R)-1-(2-pyridinyl)ethyl]-1,3-dihydro-2H-imidazo[4,5-c]quinolin-2-one] showed a remaining activity at 1.25 µM ([1]; Well no.=5813, low concentration screen) of 101% and a remaining activity at 3.75 µM ([2]; Well no.=5813, high concentration screen) of 102%.

Molecule `NCC1(CC(=O)O)CCCCC1` [Gabapentin] has a remaining activity at 1.25 µM ([1]; Well no.=510, low concentration screen) of 104%, a remaining activity at 1.25 µM ([1]; Well no.=1755, low concentration screen) of 98.1% and a remaining activity at 3.75 µM ([2]; Well no.=510, high concentration screen) of 105%. It also gave a remaining activity at 3.75 µM ([2]; Well no.=1755, high concentration screen) of 100%.

`COC1=CC(=O)O[C@@H](CCc2ccc3c(c2)OCO3)C1` [Dihydromethysticin] showed a remaining activity at 1.25 µM ([1]; Well no.=3303, low concentration screen) of 100% and a remaining activity at 3.75 µM ([2]; Well no.=3303, high concentration screen) of 102%.

`COc1cc2/c(=N/c3ccc(Br)cc3F)nc[nH]c2cc1OCC1CCN(C)CC1` [Vandetanib] was tested, and the remaining activity at 1.25 µM ([1]; Well no.=2799, low concentration screen) was 101% and the remaining activity at 3.75 µM ([2]; Well no.=2799, high concentration screen) was 101%.

In the case of `CN1CCCC1c1cccnc1` (single isomer, unassigned; (-)) [(-)-Nicotine hydrogen tartrate salt], the remaining activity at 1.25 µM ([1]; Well no.=809, low concentration screen) is reported as 95.3% and the remaining activity at 3.75 µM ([2]; Well no.=809, high concentration screen) is reported as 92.5%.

Work on `CO[C@H]1C[C@@H]2CC[C@@H](C)[C@@](O)(O2)C(=O)C(=O)N2CCCC[C@H]2C(=O)O[C@H]([C@H](C)C[C@@H]2CC[C@@H](OC(=O)C(C)(CO)CO)[C@H](OC)C2)CC(=O)[C@H](C)/C=C(\C)[C@@H](O)[C@@H](OC)C(=O)[C@H](C)C[C@H](C)/C=C/C=C/C=C/1C` [Temsirolimus] yielded a remaining activity at 1.25 µM ([1]; Well no.=8412, low concentration screen) of 95.2% and a remaining activity at 3.75 µM ([2]; Well no.=8412, high concentration screen) of 91.8%.

Molecule `NC1=NCC2c3ccccc3Cc3ccccc3N12` (stereo not drawn) [Epinastine] has a remaining activity at 1.25 µM ([1]; Well no.=6611, low concentration screen) of 96% and a remaining activity at 3.75 µM ([2]; Well no.=6611, high concentration screen) of 94.8%.

In the case of `O=C(Nc1ccc([N+](=O)[O-])cc1Cl)c1cc(Cl)ccc1O` [Niclosamide], the remaining activity at 1.25 µM ([1]; Well no.=1093, low concentration screen) is reported as 99.3% and the remaining activity at 3.75 µM ([2]; Well no.=1093, high concentration screen) is reported as 97.3%.

Molecule `COc1cc([C@H]2Oc3cc([C@H]4Oc5cc(O)cc(O)c5C(=O)[C@@H]4O)ccc3O[C@@H]2CO)ccc1O` [Silybine] has a remaining activity at 1.25 µM ([1]; Well no.=3753, low concentration screen) of 101% and a remaining activity at 3.75 µM ([2]; Well no.=3753, high concentration screen) of 104%.

Molecule `C/C(=C/C=C/[C@@H](C)C(=O)O)[C@H]1CN[C@H](C(=O)O)[C@H]1CC(=O)O` [Domoic acid] has a remaining activity at 1.25 µM [1] of 99.4% and a remaining activity at 3.75 µM [2] of 102%.

For `Cc1ccc(CN2C(=O)S/C(=C\c3ccc(Cl)cc3)C2=O)cc1` [(5Z)-5-(4-chlorobenzylidene)-3-(4-methylbenzyl)-1,3-thiazolidine-2,4-dione], the remaining activity at 1.25 µM ([1]; Well no.=6027, low concentration screen) was 94.6% and the remaining activity at 3.75 µM ([2]; Well no.=6027, high concentration screen) was 94.7%.

`CC(=O)NCC(=O)N1[C@@H]2CC[C@H]1c1ccc(Nc3ncc(C(F)(F)F)c(NC4CCC4)n3)cc12` [PF-03814735] gave a remaining activity at 1.25 µM ([1]; Well no.=4693, low concentration screen) of 102% and a remaining activity at 3.75 µM ([2]; Well no.=4693, high concentration screen) of 105%.

`NC(N)=NCCCC(=O)O` [4-Guanidinobutanoic acid] showed a remaining activity at 1.25 µM ([1]; Well no.=7687, low concentration screen) of 108% and a remaining activity at 3.75 µM ([2]; Well no.=7687, high concentration screen) of 106%.

With `CCC(=O)OCC(=O)[C@@]1(OC(=O)CC)[C@@H](C)C[C@H]2[C@@H]3CCC4=CC(=O)C=C[C@]4(C)[C@@]3(Cl)[C@@H](O)C[C@@]21C` [Beclometasone dipropionate] the remaining activity at 1.25 µM ([1]; Well no.=7615, low concentration screen) was 101% and the remaining activity at 3.75 µM ([2]; Well no.=7615, high concentration screen) was 96.1%.
